Experimental data published in patent publication US20250052751A1, “COMPOSITIONS AND METHODS FOR DIAGNOSING AUTOIMMUNE AQUAPORINOPATHY” (The Regents of the University of California, priority 2023, published 2025).

Tests used:
TCRα deficient mice = assay: Adoptive transfer of peptide-primed, AQP4 201-220-cultured Th17 cells into TCRα deficient mice; assay type: in vivo, mouse; settings: for clinical CNS autoimmune disease after transfer of primed Th17 cells: donor AQP4-deficient mice primed with the peptide, cells cultured with AQP4 201-220, 2×10^7 T cells into TCRα deficient mice; for meningeal and parenchymal infiltrates vs OVA primed T cells: recipients of primed donor T cells, histological analysis
Experimental: FIGS. 9A-9C. T cells reactive to AQP5, an autoantigen in Sjögren's syndrome also recognize AQP4, the autoantigen in NMO, and can cause CNS autoimmune disease. (FIG. 9A) AQP4-deficient mice were immunized with AQP4 p201-220, AQP5 p174-190 or OVA 323-339. 10-12 days later lymphocytes from draining lymph nodes are removed and cultured with AQP4 201-220 under Th17 polarizing conditions for 72 hours. 2×10^7 T cells were transferred into TCRα deficient mice, followed by 200 ng Pertussis toxin at days 0 and 2. […] Statistics performed using ANOVA with Tukey's test for multiple comparisons. ****P<0.0001.
CNS autoimmune disease induction and analysis. For adoptive induction of CNS disease with primary lymphocytes, mice were immunized s.c. with 100 μg AQP4 or MOG peptides in CFA containing 400 μg M. tuberculosis H37Ra (Difco Laboratories). After 10-12 days, lymph node cells were cultured with 15 μg/ml antigen for 3 days with 20 ng/ml IL-23 and 10 ng/ml IL-6, under Th17 polarizing conditions. 2×10^7 cells were injected i.v. into naïve recipients, which then received 200 ng B. pertussis toxin (Ptx) (List Biological) i.p. on days 0 and 2. Clinical scores: 0=no disease, 1=tail tone loss, 2=impaired righting, 3=severe paraparesis or paraplegia, 4=quadraparesis, and 5=moribund or death.
Histopathology. Brain, spinal cord, optic nerve, kidney and muscle tissue samples were fixed in 10% neutral-buffered formalin, paraffin-embedded, sectioned and stained with H&E. Meningeal and parenchymal inflammatory lesions and areas of demyelination were assessed in a blinded manner as described (39).

[1] = molecular target: T1, MHC class II I-A^b molecules (Mus musculus, UniProt P14434+P14483); assay: I-A^b affinity assay (competitive binding against a radiolabeled high-affinity peptide); settings: purified I-A^b; unlabeled peptide vs radiolabeled high-affinity competitor peptide
T1 construct: made in house
T1 sequence (P14434 24-256): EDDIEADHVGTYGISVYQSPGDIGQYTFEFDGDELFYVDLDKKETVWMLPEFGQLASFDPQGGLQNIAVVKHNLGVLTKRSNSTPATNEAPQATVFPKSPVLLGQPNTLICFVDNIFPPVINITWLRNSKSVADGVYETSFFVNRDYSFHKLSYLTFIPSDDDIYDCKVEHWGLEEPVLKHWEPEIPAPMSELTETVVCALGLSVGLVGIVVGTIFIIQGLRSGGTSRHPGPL
T1 sequence (P14483 28-265): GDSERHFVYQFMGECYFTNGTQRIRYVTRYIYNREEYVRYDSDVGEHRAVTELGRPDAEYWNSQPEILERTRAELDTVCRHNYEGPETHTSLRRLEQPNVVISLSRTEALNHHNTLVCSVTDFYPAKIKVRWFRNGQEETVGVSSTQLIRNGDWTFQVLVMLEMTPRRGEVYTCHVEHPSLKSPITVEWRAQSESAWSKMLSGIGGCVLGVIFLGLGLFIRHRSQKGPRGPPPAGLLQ
Experimental: (§1) FIGS. 2A-2F. Pathogenic AQP4 determinants bind I-A^b with high affinity and elicit proliferation of AQP4: I-A^b-specific TCR-bearing T cells in AQP4-deficient mice. (FIG. 2A) WT or AQP4^−/− mice were immunized s.c. with peptides indicated. Peptide-specific proliferation of draining lymph node cells was measured by 3H-thymidine incorporation (mean±SEM, representative of five experiments). (FIG. 2B) Lymph node cells from AQP4 immunized WT or AQP4^−/− mice were cultured for 3 days with cognate antigen under Th17 polarizing conditions. AQP4 p133-149- and p202-218-specific Th17 cells from AQP4/donors induce paralysis in WT recipient mice. (FIG. 2C) IEDB, an in silico method for predicting determinants within proteins that bind MHC alleles, was used to identify AQP4 amino acid sequences anticipated to bind I-A^b for recognition by AQP4-specific/I-A^b-restricted CD4^+ T cells. 1/IC50 is plotted against the first amino acid for each overlapping AQP4 15 mer. Peaks correspond to increased predicted binding affinity. (FIG. 2D) Purified I-A^b molecules were tested biochemically for peptide binding affinity using a competitive binding assay between a radiolabeled high-affinity competitor peptide and unlabeled peptides (22). Lower IC50 values indicate higher binding affinity. Boxed amino acids designate the core binding regions. (FIGS. 2E-2F) Lymph node T cells isolated from WT or AQP4−/− mice immunized with AQP4 p133-149 or p202-218 were stained with I-A^b:p133-149 and […] tetramers, bead-enriched and analyzed by flow cytometry. […] Each data point represents one mouse. ****p<0.0001 (Mann Whitney U test).
Both AQP4 p133-149 and p202-218 are predicted to bind MHC II (I-A^b) with high affinity according to the Immune Epitope Database (IEDB) (FIG. 2C), an in silico method for predicting determinants within proteins that bind allele-specific MHC molecules for presentation to T cells (21). We have now examined AQP4 peptide affinity for I-A^b biochemically. I-A^b molecules that were purified by affinity chromatography were tested in a competitive binding assay between a radiolabeled high-affinity competitor peptide and unlabeled peptides (22). Indeed, peptides containing the two pathogenic AQP4 T cell determinants bound I-A^b with higher affinity than the nonpathogenic AQP4 p24-35 T cell epitope or MOG p35-55 (FIG. 2D).
I-A^b affinity Assay. Purification of MHC class II I-A^b molecules by affinity chromatography, and the performance of assays based on the inhibition of binding of a high affinity radiolabeled peptide to quantitatively measure peptide binding, were performed as described (22). Lower IC50 values indicate higher binding affinity. Excellent binders have affinities less than 100 nM and good binders have affinities less than 1000 nM.

[2] = test system: draining lymph node cells; assay: Proliferation assay, ^3H-thymidine incorporation after s.c. peptide immunization; assay type: cell-based, mouse
Experimental: as §1
(§2) FIGS. 4A-4B. Negative selection of AQP4 p133-149-reactive T cells is bypassed partially in mice deficient in thymic AQP4 expression. (FIG. 4A) AQP4^−/− WT, Foxn1cre-AQP4^fl/fl, Aire^−/−, or Foxn1cre-Fezf2^fl/fl mice were immunized s.c. with peptides indicated. Peptide-specific proliferation of draining lymph node cells was measured by 3H-thymidine incorporation (mean±SEM, representative of five experiments). Comparisons within the five experiments for p133-149 at […]: WT vs. AQP4^−/− (p=0.008), WT vs. Foxn1cre-AQP4^fl/fl (p=0.008). (FIG. 4B) Ten days after peptide immunization, CD4^+ T cells from draining lymph nodes were analyzed for I-A^b: peptide tetramer binding by flow cytometry. Each data point represents the frequency (mean±SEM) of CD4^+ T cells bound to cognate antigen-tetramer in a single mouse. […] For p133-149: WT vs. Aire^−/− (p=0.9), WT vs. Foxn1cre-Fezf2^fl/fl (p=0.3). For p202-218: WT vs. Foxn1cre-AQP4^fl/fl (p=0.3), WT vs. Aire^−/− (p=0.06).
(§3) Proliferation assays. Mice were immunized subcutaneously (s.c.) with 100 μg of AQP4, MOG or IRBP peptide in CFA containing 400 μg M. tuberculosis H37Ra (Difco Laboratories). Lymph nodes were harvested on day 10-12 and cultured at 2×10^5/well with various concentrations of peptide in triplicate wells for 72 hours. […] of ^3H-thymidine was added 18 hours prior to cell harvest, and data are presented as counts per minute (CPM). Stimulation Index (SI) was calculated by dividing CPM in wells with Ag by CPM in wells with no antigen controls of each assay test group.

[3] = test system: draining lymph node cells; assay: T cell cross-reactivity between AQP4 and AQP5, ^3H-thymidine proliferation; assay type: cell-based, mouse; settings: AQP4-deficient mice immunized with 100 μg AQP5 p174-190; cells cultured with AQP4 201-220, then restimulated
Experimental: FIG. 8. T cells cross-react with AQP4 and AQP5. AQP4-deficient mice were immunized with 100 μg of AQP5 p174-190. Draining lymph node cells were cultured with AQP4 201-220, then restimulated with the different antigens. Proliferation was measured by ^3H-thymidine incorporation of the stimulation to antigen divided by the background stimulation (mean±SEM).
as §3

CD4^+ T cells = assay: I-A^b:peptide tetramer binding by flow cytometry after peptide immunization; assay type: cell-based, mouse; settings: Aire^−/− mice, I-A^b:IRBP p277-289 tetramer
Experimental: as §2
Flow cytometry. For analysis of tetramer binding, AQP4 p133-149, p202-218, IRBP p277-289 and hCLIP p87-101 IA^b tetramers conjugated to PE or APC were provided by the National Institute of Allergy and Infectious Diseases Tetramer Core Facility at Emory University. Lymphocytes were coincubated with 1 mg/ml tetramer conjugated to PE or APC for 2 hours at room temperature, washed and enriched using anti-PE magnetic microbeads (Miltenyi) over a magnetic column. Binding to hCLIP tetramer was used as a negative control. Dead cells were excluded using Live/Dead fixable Aqua Dead Cell Stain Kit (Invitrogen), lineage negative cells were excluded using antibodies to CD11b (M1/70), B220 (RA3-6B2) and CD8 (53-6.7) and positive cells were selected using antibodies to CD3 (145-2C11) and CD4 (RM4.5). 123count eBeads (Invitrogen) were used with unenriched and enriched samples for quantification of the frequency of tet^+CD4^+ T cells (total number of tet^+CD4+ T cells divided by total CD4^+ T cells per mouse). For figures showing tetramer staining, flow cytometry of the unenriched cells are shown. For analysis of GFP^+ T cells, mice were perfused with PBS, and the CNS was dissected, minced, digested with collagenase and DNase I (Roche), and isolated over a Ficoll gradient as described previously (39). Live CD4^+ cells were analyzed with a viability stain (Near-IR), and antibodies to CD11b, B220, CD8 and CD4. Apoptosis was analyzed separately using the same antibody staining, followed by Annexin V and 7-AAD staining in Annexin V binding buffer (BioLegend) per manufacturer's instructions. Cells were quantified using 123count eBeads.

AQP4 p201-220: AQP4 T cell epitope (201-220) that causes CNS autoimmunity in mice (HLFAINYTGASMNPARSFGP; UniProt P55088 201-220, looked up, fragment)
clinical CNS autoimmune disease after transfer of primed Th17 cells (TCRα deficient mice): cause paralysis | meningeal and parenchymal infiltrates vs OVA primed T cells (TCRα deficient mice): significantly more meningeal and parenchymal infiltrates | peptide binding affinity for I-A^b [1]: exceptionally high affinity

AQP4 p24-35: nonpathogenic AQP4 T cell epitope (VAFKGVWTQAFW) [reference compound]
discordance in proliferation between AQP4^−/− and WT mice [2]: not observed

LVGIYFTGCSMNPARSF [AQP5 p174-190, autoantigen in Sjögren's syndrome]
clinical CNS autoimmune disease after transfer of primed Th17 cells (TCRα deficient mice): cause paralysis | clinical CNS autoimmune disease after transfer of primed Th17 cells (TCRα deficient mice; listed as AQP5 174-190): can induce clinical and histologic CNS autoimmune disease | meningeal and parenchymal infiltrates vs OVA primed T cells (TCRα deficient mice): significantly more meningeal and parenchymal infiltrates | T cell cross-reactivity [3]: T cell cross-reactivity between AQP5 174-190 and AQP4 201-220 | T cell stimulation (proliferation) [3]: stimulatory

IRBP p277-289: Aire-dependent T cell determinant of interphotoreceptor retinoid-binding protein (FLTVPVSRSLGPL; UniProt P49194 277-289, looked up, fragment) [reference compound]
expansion of CD4^+ tet^+ T cells (CD4^+ T cells): promoted expansion
